Results: PubChem BioAssay (NCI)
Several values for one entry are separate records, joined by “and”; a condition that tells them apart may be missing. Equal entries are not always repeated.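 Briefly, cells in 96-well plates were exposed to five compound concentrations for 48 h, and endpoints were estimated by linear interpolation. GI50: concentration for 50% inhibition of growth. TGI: total growth inhibition.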

Tests used:
Test in all cases: inhibition of tumour cell growth, NCI panel, 48 h
[1] = system: IGROV1 ovarian
[2] = system: OVCAR-3 ovarian
[3] = system: SK-MEL-5 melanoma
[4] = system: MALME-3M melanoma
[5] = system: HT29 colon
[6] = system: UO-31 renal
[7] = system: HOP-92 NSCLC
[8] = system: NCI-H460 lung
[9] = system: HCT-116 colon
[10] = system: NCI-H522 lung

SMILES	GI50 [1]	TGI [1] [µM]	TGI [2] [µM]	GI50 [3]	TGI [3]	GI50 [4]	TGI [4] [µM]	GI50 [5]	TGI [5] [µM]	GI50 [6]	TGI [6] [µM]	GI50 [7]	TGI [7]	GI50 [8]	TGI [8] [µM]	GI50 [9]	TGI [9] [µM]	GI50 [10]	TGI [10] [µM]	GI50 [2] [µM]
CC(=O)N[C@H](C)[C@@H](O)[C@@H](C)[C@@H]1OC(=O)/C=C/C=C(C)\C=C\[C@]2(C)C[C@@H](NS(C)(=O)=O)C=C[C@@H]2/C=C(C)/C=C/[C@H]1C	0.0185 µM and 0.014 µM	> 43.5	> 43.5	0.00313 µM and 0.00786 µM	0.0151 µM and 0.0256 µM	0.0868 µM and 0.0628 µM	> 43.5	0.00459 µM and 0.00435 µM	> 43.5	0.00495 µM and 0.00725 µM	> 43.5	0.00126 µM and 0.00435 µM	0.0297 µM and 0.0256 µM	0.00812 µM and 0.0174 µM	> 43.5	0.00172 µM and 0.00435 µM	> 43.5	0.0251 µM and 0.0451 µM	> 43.5	–
C[N+]1=C(c2cccnc2/C=N/O)OCC1(C)C	–	> 100	> 100	–	> 100 µM	–	> 100	–	> 100	–	> 100	–	> 100 µM	–	> 100	–	> 100	–	> 100	–
CCN(C(=O)N1CCN(c2cc3c(cc2F)c(=O)c(C(=O)O)cn3C2CC2)CC1)c1nc(-c2ccccc2)cs1	3.12 µM	> 100	9.83	3.63 µM	55.6 µM	2.77 µM	9.06	3.2 µM	> 100	2.31 µM	> 100	2.17 µM	7.53 µM	3.11 µM	> 100	2.64 µM	> 100	2.01 µM	7.61	2.61
O=C(COc1ccc(/C=C2\Oc3ccc4ccccc4c3C2=O)cc1)c1ccc([N+](=O)[O-])cc1	4.06 µM	34.1	17.4	13.2 µM	28.9 µM	13.3 µM	39.8	9.05 µM	24	10.6 µM	39.3	19.8 µM	69.6 µM	16.5 µM	40.2	3.03 µM	13.8	2.04 µM	5.41	4.59
Cc1cccc2c(C3=C(c4cn(C)c5ccccc45)C(=O)NC3=O)cn(C)c12	25 µM	> 25	> 25	> 22.2 µM	> 25 µM	> 17.8 µM	> 25	> 13.8 µM	> 25	> 21.5 µM	> 25	9.91 µM	> 25 µM	> 21.8 µM	> 25	> 15.8 µM	> 25	> 17 µM	> 25	9.33
Cc1cc(F)c(C(=O)Nc2cccc(-c3nncn3C(C)C)n2)cc1-n1cnc(C2CC2)c1	6.89 µM	61.7	> 100	11.3 µM	23.6 µM	23.3 µM	72.1	18.2 µM	> 100	3.05 µM	23.7	8.23 µM	> 100 µM	14.5 µM	96.4	8.25 µM	> 100	8.56 µM	44.1	12.5
